Experimental data from paper PMC9088798, “An Approach to Derive Functional Peptide Inhibitors of Transcription Factor Activity” (JACS Au, 2022).

How the values were obtained:
[1] = CD spectroscopy of single components (helicity); assay type: physicochemical; settings: 20 °C, 10 μM, 150 mM potassium phosphate, 150 mM KF, 5 mM TCEP, pH 7.4
Procedure: Figure 5 TBS winner peptide HingeW binds cJun preferentially over A-FosW. CD spectra (20 °C) show the binding of cJun to either (A) HingeW or (B) A-FosW. […] However, the effect is larger for HingeW, indicating a greater increase in peptide helicity. Similarly, the thermal denaturation of cJun bound to either (C) HingeW or (D) A-FosW is right-shifted from the average of the component peptide denaturation profiles. […] CD dimer exchange spectra show (E) an increase in helicity when HingeW is mixed with the A-FosW/cJun heterodimer as the HingeW exchanges with the A-FosW due to the binding preference of cJun for HingeW and (F) no shift from the average is observed when A-FosW is mixed with the HingeW/cJun heterodimer, indicating no change in dimer populations. Arrows are shown to highlight the shift from the average at 190 and 222 nm. In all experiments, the total sample peptide concentration was fixed to 10 μM, using equimolar concentrations of each component peptide to remove concentration-dependent effects. […]
(§1) µM) alongside ampicillin, kanamycin and chloramphenicol to maintain the required plasmids, and IPTG (1 mM) to induce protein expression. The library transformants were […]
increased to the optimum 4 µM in subsequent passages. […] This allows the occurrence of library members to be monitored as winner sequences are selected for. […]

[2] = test system: cJun bZIP / TRE sites in TRE-mDHFR gene; test: Transcription block survival (TBS) colony counting in E. coli; assay type: cell-based, human cJun, expressed in E. coli
Procedure: Figure 3 Transcription block survival (TBS) assay to derive functionally active cJun inhibitors. (A) Schematic illustrating the design and operation of TBS. (B) Controlled numbers of E. coli expressing the indicated proteins were plated on selective media and growth rates were calculated by counting colony-forming units. […] (2) A small effect on colony numbers is observed when cJun bZIP is additionally expressed. (3) TRE-mDHFR can replace the inhibited ecDHFR with colony count lower than for WT as expected. […] Although (6) cFos LZ and (7) FosW are known cJun-binders, they are unable to effectively dissociate the cJun bZIP from TRE DNA. However, (8) A-FosW and the TBS-derived hit (9) HingeW remove TRE-mDHFR transcriptional blocks to restore cell survival. Bar charts represent averages of three experimental repeats. Errors are shown as one standard deviation. Selected P values from a t-test are indicated (*P ≤ 0.05; **P ≤ 0.01; ****P ≤ 0.0001) with values for all possible comparisons within the bar chart reported in Figure S7. Serial dilutions were used to quantify colony numbers where required. Also shown are representative plate images and schematics to illustrate the effect upon TRE-mDHFR transcription. […]
Library Construction and TBS Assay: Library inserts were produced using PCR fill-in reactions from synthesised primers (Sigma) with degenerate codons at the desired positions to produce the correct residue options. The library was subcloned using SacI and AscI sites into the pET24a plasmid containing A-FosW. The primers used were cJun- […]
-3’ and cJun-Hinge-Lib_R: 5’-
-3’. The library DNA was transformed into NEB 10-beta electrocompetent E. coli cells. The following equation was utilised to determine library […]
coverage by the number of single colonies: where E is the percentage […] of the library missing, m is the number of colonies collected and n is the library size. This […]
covered. Library DNA quality was assessed by sequencing both the DNA pool and a number of single colonies to show degenerate codons in the correct positions in the pool and to show a diversity of library members from single colonies. The pool of library DNA was transformed into BL21 Gold cells already containing pES300d-TRE-mDHFR and […]
as §1
however a lower stringency is used initially before selection is increased in later steps.
Colonies from this first round of selection were pooled and serially grown in liquid culture at starting OD600 of 0.05 and grown at 37°C with shaking at 200 rpm until the OD600 […]
increased to the optimum 4 µM in subsequent passages. Bacteria containing the most effective functional antagonists were expected to produce higher levels of TRE-mDHFR which provides a growth advantage, and these will dominate the culture. At each passage step, a sample of the culture was plated on LB agar (supplemented with antibiotics to maintain plasmids) to select and sequence individual colonies, and a DNA pool was also sequenced. This allows the occurrence of library members to be monitored as winner sequences are selected for. Assay Validation experiments utilised a modified assay methodology whereby overnight cultures from glycerol stocks of the Control Strains (Figure S6) were diluted to OD600=0.5 and 50 µL was plated on a selective M9 minimal […]

| Substance | Fraction helicity of single component [1] [%] | colony numbers restored relative to TRE-mDHFR only ([2]; TRE-mDHFR + cJun bZIP + peptide, M9 + 4 μM TMP + 1 mM IPTG, average of three experimental repeats) [%] | reduction in colony counts on expression of cJun bZIP with TRE-mDHFR ([2]; M9 minimal media + 4 μM TMP + 1 mM IPTG, TRE-mDHFR + cJun bZIP, P ≤ 0.0001, average of three experimental repeats) [fold] | reduction in colony counts on expression of cJun bZIP without TRE sites (WT-mDHFR) ([2]; M9 minimal media + 4 μM TMP + 1 mM IPTG, WT-mDHFR + cJun bZIP vs WT-mDHFR, P ≤ 0.05, three experimental repeats) [fold] |
| --- | --- | --- | --- | --- |
| LEQRAEELARENEELEKEAEELEQELDELQAEIEQLEERNYALRKEIEDLQKQLEKL [A-FosW, N-terminal AS and C-terminal GAP caps, 6xHis-tagged] | 40.1 | 60 |  |  |
| cJun bZIP: human cJun bZIP domain, Arg252 to Leu308 (target protein) | 14.0 |  | 21 | 1.3 |
